Laboratory results taken from patent publication US20240376142A1, “A-SALIDROSIDE, METHOD FOR PREPARING SAME, AND APPLICATION THEREOF” (SHANDONG HENGLU BIOTECH. CO., LTD., priority 2021, published 2024).

Columns and labels:
[1] = Hydroxyl radical scavenging experiment (Fenton reaction, 1,10-phenanthroline spectrophotometry); type: biochemical; conditions: for Hydroxyl Radical Scavenging Rate: 37° C., 30 minutes, 536 nm
Description: The Hydroxyl Radical Scavenging Activity is an important indicator for measuring the antioxidant capacity of substances. Currently, the main analytical testing methods for hydroxyl radicals include High Performance Liquid Chromatography, Chemiluminescence, Fluorescence Analysis, and Spectrophotometry, etc. Among them, the most commonly used method for measuring the hydroxyl radical scavenging activity is Spectrophotometry, which can be used to determine the inhibition of the absorbance decline of the colorant 1,10-Phenanthroline by the sample, thereby reflecting the ability of the sample to scavenge hydroxyl radicals. The measurement principle is as follows: H2O2/Fe^2+ produces hydroxyl radicals through the Fenton reaction, oxidizing Fe^2+ in the 1,10-Phenanthroline-Fe^2+ aqueous solution to Fe^3+, leading to a decline in the absorbance at 536 nm. The degree to which the sample inhibits the rate of absorbance decline at 536 nm reflects the ability of the sample to scavenge hydroxyl radicals.
• (1) FeSO4 Solution: 1.5 mM and 5 mM FeSO4 aqueous solutions were prepared using conventional methods. • (2) PBS Buffer: • 1) 0.2 mol/L sodium dihydrogen phosphate and 0.2 mol/L disodium hydrogen phosphate aqueous solutions were prepared. • 2) 19 mL of sodium dihydrogen phosphate aqueous solution and 81 mL of disodium hydrogen phosphate aqueous solution were taken, mixed well, and the pH was adjusted to 7.4 (measured with a pH meter, and the pH value was adjusted with 0.1 mol/L sodium hydroxide or 0.1 mol/L phosphoric acid if necessary). • (3) 1,10-Phenanthroline: 0.75 mM and 3 mM aqueous solutions were prepared using conventional methods. • (4) Hydrogen Peroxide (H2O2) Solution: 0.1% (v/v) aqueous solution was prepared using conventional methods. • (5) α-salidroside Solution: 1 mg/mL and 4 mg/mL aqueous solutions were prepared using conventional methods. • (6) β-salidroside Solution: 1 mg/mL and 4 mg/mL aqueous solutions were prepared using conventional methods.
Scheme 1: Using 5 mM FeSO4 aqueous solution, 0.1% hydrogen peroxide, 1 mg/mL α-salidroside aqueous solution or 1 mg/mL β-salidroside aqueous solution, and 3 mM 1,10-Phenanthroline aqueous solution, the following operation steps were carried out for the reaction.
Scheme 2: Using 1.5 mM FeSO4 aqueous solution, 0.1% hydrogen peroxide, 4 mg/mL α-salidroside aqueous solution or 4 mg/mL β-salidroside aqueous solution, and 0.75 mM 1,10-Phenanthroline aqueous solution, the following operation steps were carried out for the reaction.
Specific Operation Steps: (1) 40 μL of α-salidroside solution or β-salidroside solution was taken separately, to which 40 μL of FeSO4 solution, 60 μL of PBS buffer solution (pH 7.4), and 40 μL of 1,10-Phenanthroline solution were added respectively, mixed well. Then, 40 μL of H2O2 solution was added and mixed well again. […] Using distilled water as blank, the absorbance at 536 nm wavelength was measured and the average of three parallels was calculated and noted as Ai.
(2) 80 μL of distilled water was taken, to which 40 μL of FeSO4 solution, 60 μL of PBS buffer solution (pH 7.4), and 40 μL of 1,10-Phenanthroline solution were added and mixed well. […] Using distilled water as blank, the absorbance at 536 nm wavelength was measured and the average of three parallels was calculated and noted as Aj. […] Using distilled water as blank, the absorbance at 536 nm wavelength was measured and the average of three parallels was calculated and noted as A0.

[2] = DPPH radical scavenging experiment; type: biochemical; conditions: for DPPH Radical Scavenging Rate: 500 mg/L aqueous sample solution mixed 1:1 with 0.04 mg/ml DPPH ethanol solution, dark, 517 nm
Description: Free radicals play a significant role, either directly or indirectly, in oxidative processes and are widely involved in the physiological and pathological processes of the body. When the body has an excess of free radicals, the body damage can be caused by free radicals through oxidative actions. Phenolic compounds, being donors of phenolic hydroxyl groups, form the structural basis for antioxidant activity. This experiment employs the DPPH [1,1-Diphenyl-2-trinitrophenyl hydrazine, also known as 1,1-Diphenyl-2-picrylhydrazyl, (free radical)] radical scavenging reaction to study the scavenging efficiency of α-salidroside and β-salidroside on DPPH radicals. • (1) α-salidroside solution: prepared as a 500 mg/L aqueous solution using conventional methods. • (2) β-salidroside solution: prepared as a 500 mg/L aqueous solution using conventional methods. • (3) DPPH ethanol solution: prepared as a 0.04 mg/ml solution in anhydrous ethanol using conventional methods. • (1) 0.9 mL each of α-salidroside solution and β-salidroside aqueous solution were taken separately, and 0.9 mL of DPPH anhydrous ethanol solution was added to each, mixed well, and then left to stand in the dark. Samples were taken at 0.5 h, 1 h, 2 h, and 4 h respectively, and the absorbance was measured at a wavelength of 517 nm. The average of three parallels was calculated and noted as Ai. • (2) 0.9 mL each of α-salidroside solution and β-salidroside aqueous solution were taken separately, and 0.9 mL of anhydrous ethanol was added to each, mixed well, and then left to stand in the dark […]. Samples were taken at 0.5 h, 1 h, 2 h, and 4 h respectively, and the absorbance was measured at a wavelength of 517 nm. The average of three parallels was calculated and noted as Aj. • (3) 0.9 mL of distilled water was taken, to which 0.9 mL of DPPH ethanol solution was added, mixed well, and the absorbance was measured at a wavelength of 517 nm. The average of three parallels was calculated and noted as A4. • (4) 0.9 mL of anhydrous ethanol was taken, to which 0.9 mL of distilled water was added, mixed well, and was used as a blank. The DPPH radical scavenging rate was calculated according to the formula below, and the results were recorded in Table 3. [formula]

[3] = Scheme 1: 1 mg/mL sample solution, 5 mM FeSO4, 0.1% hydrogen peroxide, 3 mM 1,10-Phenanthroline
[4] = Scheme 2: 4 mg/mL sample solution, 1.5 mM FeSO4, 0.1% hydrogen peroxide, 0.75 mM 1,10-Phenanthroline

| SMILES | Hydroxyl Radical Scavenging Rate [1, 3] [%] | Hydroxyl Radical Scavenging Rate [1, 4] [%] | capability in scavenging hydroxyl radicals compared to β-salidroside ([1]; in words, from Table 4, both schemes) | DPPH Radical Scavenging Rate ([2]; 0.5 h) [%] | DPPH Radical Scavenging Rate ([2]; 1 h) [%] | DPPH Radical Scavenging Rate ([2]; 2 h) [%] | DPPH Radical Scavenging Rate ([2]; 4 h) [%] | capability of scavenging DPPH radicals compared to β-salidroside ([2]; in words, from Table 3, especially when the reaction time is over 1 hour) |
| --- | --- | --- | --- | --- | --- | --- | --- | --- |
| OC[C@H]1O[C@H](OCCc2ccc(O)cc2)[C@H](O)[C@@H](O)[C@@H]1O [α-salidroside, 2-(4-hydroxyphenyl) ethyl-α-D-glucopyranoside] | 28.69 | 21.62 | far superior to that of β-salidroside | 19.29 | 28.45 | 31.00 | 34.12 | higher capability of scavenging DPPH radicals compared to β-salidroside |
| OC[C@H]1O[C@@H](OCCc2ccc(O)cc2)[C@H](O)[C@@H](O)[C@@H]1O [β-salidroside, reference compound] | 13.92 | 4.05 |  | 19.96 | 23.21 | 28.24 | 28.33 |  |
